Assay results as given in ChEMBL document CHEMBL1144715, “Synthesis, checkpoint kinase 1 inhibitory properties and in vitro antiproliferative activities of new pyrrolocarbazoles” (Bioorg Med Chem, 2008).

Key:
L1210 = test: Cytotoxicity against mouse L1210 cells after 4 hrs by microculture tetrazolium assay; format: functional, cell-based; conditions: L1210, 4 h
HT-29 = test: Cytotoxicity against human HT29 cells after 4 hrs by microculture tetrazolium assay; format: functional, cell-based; conditions: HT-29, 4 h
HCT-116 = test: Cytotoxicity against human HCT116 cells after 4 hrs by microculture tetrazolium assay; format: functional, cell-based; conditions: HCT-116, 4 h
[1] = target: T1, Serine/threonine-protein kinase Chk1 (Homo sapiens) (UniProt O14757); test: Inhibition of human Chk1 at 10 uM
T1 sequence (whole entry): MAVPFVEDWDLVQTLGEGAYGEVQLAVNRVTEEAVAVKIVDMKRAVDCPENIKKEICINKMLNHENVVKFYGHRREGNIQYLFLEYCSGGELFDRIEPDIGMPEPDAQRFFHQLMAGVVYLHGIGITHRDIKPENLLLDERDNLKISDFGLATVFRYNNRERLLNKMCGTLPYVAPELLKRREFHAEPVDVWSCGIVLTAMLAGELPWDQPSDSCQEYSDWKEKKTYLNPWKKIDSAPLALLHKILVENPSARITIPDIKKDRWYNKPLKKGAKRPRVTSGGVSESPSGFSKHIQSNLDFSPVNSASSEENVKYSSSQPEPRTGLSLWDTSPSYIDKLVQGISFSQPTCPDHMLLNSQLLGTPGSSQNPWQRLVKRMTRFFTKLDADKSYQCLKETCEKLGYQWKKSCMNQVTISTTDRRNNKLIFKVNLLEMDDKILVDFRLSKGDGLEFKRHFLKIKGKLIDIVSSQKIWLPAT

[2] = target: T2, Serine/threonine-protein kinase Chk1 (Homo sapiens, UniProt O14757); test: Inhibition of human Chk1
T2 sequence (O14757 whole entry): T1 sequence (whole entry)

[3] = target: Proto-oncogene tyrosine-protein kinase Src (Homo sapiens) (UniProt P12931); test: Inhibition of Src at 10 uM after 20 mins
Sequence of Proto-oncogene tyrosine-protein kinase Src (Homo sapiens) (P12931 2-536 limits assumed): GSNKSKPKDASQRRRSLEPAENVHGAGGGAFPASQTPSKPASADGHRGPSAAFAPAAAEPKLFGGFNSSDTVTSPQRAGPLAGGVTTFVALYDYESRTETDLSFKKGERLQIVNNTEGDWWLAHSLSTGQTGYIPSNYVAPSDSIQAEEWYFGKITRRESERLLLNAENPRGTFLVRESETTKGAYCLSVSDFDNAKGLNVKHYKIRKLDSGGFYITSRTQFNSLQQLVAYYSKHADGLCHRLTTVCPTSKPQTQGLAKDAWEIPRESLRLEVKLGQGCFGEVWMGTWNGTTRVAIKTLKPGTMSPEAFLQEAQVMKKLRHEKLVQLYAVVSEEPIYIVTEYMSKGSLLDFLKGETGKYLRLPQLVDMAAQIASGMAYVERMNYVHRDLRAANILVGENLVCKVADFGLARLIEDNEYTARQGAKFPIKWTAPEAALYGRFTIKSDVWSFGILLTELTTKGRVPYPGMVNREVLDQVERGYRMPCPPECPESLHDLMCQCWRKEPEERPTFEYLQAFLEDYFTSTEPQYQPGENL

O=C1NC(=O)c2c1c1c(O)ccc(O)c1c1[nH]c3ccccc3c21
IC50 (L1210): 1.1 µM | IC50 (HT-29): 5.6 µM | IC50 (HCT-116): 3.1 µM

O=C1NC(=O)c2c1c1c3ccccc3[nH]c1n1cncc21 [ISOGRANULATIMIDE]
IC50 (L1210): 10 µM | IC50 (HT-29): 13.7 µM | IC50 (HCT-116): 13 µM

O=C1NCc2c1c1c(c3c2[nH]c2ccccc23)C(=O)NC1=O
inhibition [1]: 83% | IC50 [2]: 0.024 µM | IC50 (L1210): > 50 µM | IC50 (HT-29): 0.58 µM | IC50 (HCT-116): 8.54 µM

O=c1ccc(=O)c2c1c1[nH]c3ccccc3c1c1c(=O)[nH]c(=O)c21
IC50 (L1210): 6.8 µM | IC50 (HT-29): 17.4 µM | IC50 (HCT-116): 5.3 µM

O=C1NC(=O)c2c1c1[nH]cnc1c1[nH]c3ccccc3c21 [GRANULATIMIDE]
IC50 (L1210): 2.8 µM | IC50 (HT-29): 5.7 µM | IC50 (HCT-116): 6.1 µM

CC1(C)C(=O)c2c3c(c4c([nH]c5ccccc54)c2C1=O)C(=O)NC3=O
inhibition [1]: 63% | IC50 [2]: 14.5 µM | IC50 (L1210): 33 µM | IC50 (HT-29): 38.5 µM | IC50 (HCT-116): 32.7 µM

O=c1[nH]c(=O)c2c1c1[nH]c3ccccc3c1c1c(=O)[nH]c(=O)c21 [BIS-IMIDE A]
IC50 (L1210): 32.7 µM | IC50 (HT-29): 9.7 µM

O=C1NC(=O)c2c1c1c(c3c2[nH]c2ccccc23)C(=O)NC1
IC50 [2]: 0.051 µM

CC1(C)C(=O)c2c3c(c4c([nH]c5ccccc54)c2C1=O)C(=O)NC3
inhibition [3]: 19% | inhibition [1]: 20% | IC50 (L1210): 2.2 µM | IC50 (HT-29): 2.5 µM | IC50 (HCT-116): 1.7 µM

O=C1NC(=O)c2c1c1c(O)ccc3c1c1c2c2ccccc2n1[C@]1(O3)O[C@H](CO)[C@@H](O)[C@H](O)[C@H]1O
inhibition [3]: 9% | inhibition [1]: 73% | IC50 [2]: 1.92 µM | IC50 (L1210): 21.2 µM | IC50 (HT-29): 57.8 µM | IC50 (HCT-116): 46.4 µM
